Assay results reported in BindingDB's records for patent US20240116892 (Ajax Therapeutics, Inc., 2024).
pKd: −log10 of the molar value.

Target: Tyrosine-protein kinase JAK2 [Y1007F,Y1008F] (Homo sapiens, UniProt O60674, Y1007F/Y1008F)
Experiment: JAK2 Binding Assay
Experimental: JAK2 (JH1 domain-catalytic, Y1007F, Y1008F) kinase was expressed as N-terminal fusion to the DNA binding domain of NFkB in transiently transfected HEK293 cells and subsequently tagged with DNA for qPCR detection. Streptavidin-coated magnetic beads were treated with biotinylated small molecule ligands for 30 minutes at room temperature to generate affinity resins for kinase assays. The liganded beads were blocked with excess biotin and washed with blocking buffer (SeaBlock (Pierce), 1% BSA, 0.05% Tween 20, 1 mmol/L DTT) to remove unbound ligand and to reduce nonspecific phage binding. Binding reactions were assembled by combining kinases, liganded affinity beads, and test compounds in 1× binding buffer (1× PBS, 0.05% Tween 20, 0.1% BSA, 1 mmol/L DTT). Test compound was prepared as 111× stocks in 100% DMSO and directly diluted into the assay wells. All reactions were performed in polypropylene 384-well plates in a final volume of 0.02 mL. The assay plates were incubated at room temperature with shaking for 1 hour and the affinity beads were washed with wash buffer (1× PBS, 0.05% Tween 20). The beads were then re-suspended in elution buffer (1× PBS, 0.05% Tween 20, 0.5 μmol/L non-biotinylated affinity ligand) and incubated at room temperature with shaking for 30 minutes. The kinase concentration in the eluate was measured by qPCR.

Tyrosine-protein kinase JAK2 [Y1007F,Y1008F], sequence (O60674 whole entry Y1007F/Y1008F): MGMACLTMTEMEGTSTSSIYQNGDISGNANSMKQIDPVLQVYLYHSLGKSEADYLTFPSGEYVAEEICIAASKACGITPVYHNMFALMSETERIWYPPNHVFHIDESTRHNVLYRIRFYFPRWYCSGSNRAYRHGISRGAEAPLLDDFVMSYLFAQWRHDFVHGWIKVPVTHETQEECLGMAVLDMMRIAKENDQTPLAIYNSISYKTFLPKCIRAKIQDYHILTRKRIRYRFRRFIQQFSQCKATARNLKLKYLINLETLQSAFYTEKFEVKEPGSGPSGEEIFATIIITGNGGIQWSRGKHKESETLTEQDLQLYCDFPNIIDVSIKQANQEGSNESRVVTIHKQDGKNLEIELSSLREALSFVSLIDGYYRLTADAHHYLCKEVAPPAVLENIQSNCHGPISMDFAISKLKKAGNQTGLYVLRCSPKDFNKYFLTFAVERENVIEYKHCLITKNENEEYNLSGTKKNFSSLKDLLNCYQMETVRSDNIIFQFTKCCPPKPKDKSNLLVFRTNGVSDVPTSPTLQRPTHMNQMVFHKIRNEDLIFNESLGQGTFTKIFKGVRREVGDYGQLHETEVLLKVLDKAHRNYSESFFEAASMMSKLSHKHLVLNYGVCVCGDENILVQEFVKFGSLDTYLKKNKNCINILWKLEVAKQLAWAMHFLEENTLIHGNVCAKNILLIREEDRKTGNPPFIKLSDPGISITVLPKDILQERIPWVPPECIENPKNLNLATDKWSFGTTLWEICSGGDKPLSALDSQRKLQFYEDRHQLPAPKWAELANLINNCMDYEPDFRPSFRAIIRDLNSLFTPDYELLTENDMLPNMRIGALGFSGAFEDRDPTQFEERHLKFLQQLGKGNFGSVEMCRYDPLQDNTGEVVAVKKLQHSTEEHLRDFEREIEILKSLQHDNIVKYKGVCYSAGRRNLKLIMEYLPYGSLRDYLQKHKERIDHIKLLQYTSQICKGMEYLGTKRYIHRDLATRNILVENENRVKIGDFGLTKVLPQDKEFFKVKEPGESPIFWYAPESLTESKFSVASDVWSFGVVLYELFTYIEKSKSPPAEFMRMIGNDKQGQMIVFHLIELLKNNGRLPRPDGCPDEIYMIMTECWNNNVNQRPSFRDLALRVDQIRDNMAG

pKd, > 8.00:
Cn1cc(C(F)(F)F)cc(NC(=O)N2CCO[C@@H]3CN(c4cnc(NC(=O)C5CC5)cn4)CC[C@H]32)c1=O [US20240116892, Compound I-148-b]
CN(C(=O)Nc1cc(C(F)(F)F)cn(C)c1=O)C12CC(c3cnc4[nH]ccc4c3)(C1)C2 [US20240116892, Compound I-121]
CN(C(=O)Nc1cc(C(F)(F)F)cn(C)c1=O)[C@@H]1CCN(c2cnc3[nH]ncc3c2)C[C@@H]1F [US20240116892, Compound I-62-b]
